These results are taken from patent US12679836B2, “4H-pyrrolo[3,2-c]pyridin-4-one compounds” (Bayer Aktiengesellschaft, priority 2019, dated 2026).

One assay addresses T1, Bub1 (Homo sapiens, UniProt O43683).
T1 construct: catalytic domain of human Bub1 (amino acids 704-1085); His6 (N); made in house; host or cells: Hi5 insect cells
The assay can be described thus: Bub1 TR-FRET high ATP kinase assay. It is filed as biochemical. To be noted: 2 mM ATP. An excerpt: Bub1 High ATP Kinase Assay
Bub1-inhibitory activity of compounds of the present invention at a high ATP concentration was quantified employing the Bub1 TR-FRET high ATP kinase assay as described in the following paragraphs.
N-terminally His6-tagged recombinant catalytic domain of human Bub1 (amino acids 704-1085), expressed in insect cells (Hi5) and purified by Ni-NTA affinity chromatography and subsequent size exclusion chromatography, was used as enzyme. As substrate for the kinase reaction the biotinylated peptide biotin-Ahx-[…]—SEQ ID 7 (C-terminus in amid form) was used which can be purchased e.g. form the company Biosyntan (Berlin, Germany).
Background: In TR-FRET formats the signal depends on donor and acceptor labels being close together.

In assay [1] the target is T2, EGFR with insertion of SVD between D770 and N771 (EGFR ins SVD) (Homo sapiens, UniProt P00533, DUP768-770).
T2 construct: made in house; host or cells: Sf9 insect cells (baculovirus)
T2 sequence (P00533 with tags, fused parts or gaps DUP768-770): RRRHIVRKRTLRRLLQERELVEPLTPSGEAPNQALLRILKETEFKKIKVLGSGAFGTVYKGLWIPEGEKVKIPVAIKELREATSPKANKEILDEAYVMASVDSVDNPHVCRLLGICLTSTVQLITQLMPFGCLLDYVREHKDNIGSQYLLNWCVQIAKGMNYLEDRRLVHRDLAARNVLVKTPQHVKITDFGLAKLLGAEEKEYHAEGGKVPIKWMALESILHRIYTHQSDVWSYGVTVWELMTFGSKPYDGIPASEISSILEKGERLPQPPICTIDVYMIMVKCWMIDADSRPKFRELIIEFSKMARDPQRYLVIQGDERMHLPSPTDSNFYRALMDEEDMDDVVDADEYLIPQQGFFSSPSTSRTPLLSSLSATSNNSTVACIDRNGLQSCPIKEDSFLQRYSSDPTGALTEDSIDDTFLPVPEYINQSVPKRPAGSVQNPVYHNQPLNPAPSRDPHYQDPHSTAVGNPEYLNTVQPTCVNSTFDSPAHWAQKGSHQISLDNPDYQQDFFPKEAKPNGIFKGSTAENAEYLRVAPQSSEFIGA
The assay can be described thus: Exon20-Mutant-EGFR(D770_N771insSVD) kinase assay (TR-FRET). It is filed as biochemical. Particulars: 2 mM ATP, several values per example where printed.

The target of another assay is Ba/F3-EGFR-insSVD cells (Homo sapiens, UniProt P00533, DUP768-770, cells depend on it). The experiment in a line: Ba/F3 cell survival assay (Cell Titer-Glo), EGFR-insSVD. It is filed as cell-based. Particulars: without IL-3, with 10 ng/mL EGF, 48 h; read-out: BA/F3 (insSVD) IC50. On the procedure: (§1) 293T cells from ATCC were transfected with pBABEpuro expression constructs for WT EGFR or EGFR-insSVD and pCL-Eco packaging vector using Fugene-6 transfection reagent from Promega. Plates were incubated at 37° C. for 48 h. Retrovirus was harvested by filtering the media supernatant through a 0.45 μm filter.
Chain of Ba/F3-EGFR-insSVD cells (P00533 with tags, fused parts or gaps DUP768-770): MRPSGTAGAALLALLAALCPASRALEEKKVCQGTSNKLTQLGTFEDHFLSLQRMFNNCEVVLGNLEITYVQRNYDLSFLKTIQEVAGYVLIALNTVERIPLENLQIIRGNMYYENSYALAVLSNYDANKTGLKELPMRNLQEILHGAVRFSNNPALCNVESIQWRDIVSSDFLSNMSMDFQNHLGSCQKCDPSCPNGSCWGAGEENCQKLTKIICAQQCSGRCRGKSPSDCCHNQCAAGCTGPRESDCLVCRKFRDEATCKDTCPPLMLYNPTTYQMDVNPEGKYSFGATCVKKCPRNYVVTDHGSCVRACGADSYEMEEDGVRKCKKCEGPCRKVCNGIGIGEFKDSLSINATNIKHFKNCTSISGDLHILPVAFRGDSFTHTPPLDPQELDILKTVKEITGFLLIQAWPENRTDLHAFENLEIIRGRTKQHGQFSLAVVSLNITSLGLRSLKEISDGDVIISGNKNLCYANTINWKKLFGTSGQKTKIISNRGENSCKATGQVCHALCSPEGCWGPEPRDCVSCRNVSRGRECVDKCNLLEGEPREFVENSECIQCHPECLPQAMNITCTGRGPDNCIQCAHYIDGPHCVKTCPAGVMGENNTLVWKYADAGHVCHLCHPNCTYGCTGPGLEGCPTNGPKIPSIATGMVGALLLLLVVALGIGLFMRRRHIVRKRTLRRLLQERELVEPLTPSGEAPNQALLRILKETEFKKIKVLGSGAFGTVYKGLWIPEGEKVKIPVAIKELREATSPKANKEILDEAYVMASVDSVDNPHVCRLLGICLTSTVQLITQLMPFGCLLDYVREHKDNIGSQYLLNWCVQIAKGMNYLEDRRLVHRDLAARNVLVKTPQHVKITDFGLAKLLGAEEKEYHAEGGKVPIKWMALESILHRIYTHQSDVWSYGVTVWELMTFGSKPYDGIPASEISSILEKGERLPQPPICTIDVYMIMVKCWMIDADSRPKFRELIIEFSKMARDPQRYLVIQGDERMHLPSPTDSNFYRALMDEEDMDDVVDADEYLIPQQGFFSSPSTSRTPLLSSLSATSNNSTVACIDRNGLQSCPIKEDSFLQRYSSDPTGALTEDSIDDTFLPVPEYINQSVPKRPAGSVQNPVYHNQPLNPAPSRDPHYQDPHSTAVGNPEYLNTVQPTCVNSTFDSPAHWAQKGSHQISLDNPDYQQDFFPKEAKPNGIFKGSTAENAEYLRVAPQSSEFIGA
(§2) Ba/F3 cells purchased from DSMZ were grown in RPMI+10% FBS+10 ng/mL IL-3 and infected with filtered retroviral supernatant at a 1:2 dilution. Polybrene was added to a concentration of 8 μg/mL, plates were spun for 90 min, and incubated overnight at 37° C. 2 μg/mL puromycin was added to the infected cells 24 h after infection and cells were continually grown in the presence of puromycin and 10 ng/mL IL-3. Following stably expressing Ba/F3 cell lines were generated: Ba/F3-EGFR-WT, Ba/F3-EGFR-insSVD, (Ba/F3-vector-control).
(§3) For cell survival assays, Ba/F3 cells were grown to a density of 1-2 million cells per mL, spun down and resuspended in media without IL-3, and replated at a concentration 200,000-500,000 cells per mL. The cells ectopically expressing WT EGFR or EGFR-insSVD were plated with 10 ng/mL Millipore Culture grade EGF. The cells ectopically expressing pBABEpuro empty vector were plated with 10 ng/mL IL-3. 2 days later, cells were plated in 50 μL in a 384 well plate at a concentration of 4000 cells per well for cells assayed in the absence of IL-3 and 2000 cells per well for cells assayed in the presence of IL-3. 100 nL of compound was added to each well using a 100 nL pin head, and plates were incubated at 37° C. for 48 h.
(§4) Cell viability was measured by adding 20 μL of Cell Titer-Glo Luminescent Cell Viability Reagent diluted 1:3 in PBS. Plates were sealed with Perkin Elmer Top-Seal, inverted several times to mix, and immediately centrifuged at 1000 rpm for 2 min. Plates were incubated in low light conditions for 8-10 min and luminescence was measured.
On the technique in general: ATP-based viability assays read luminescence as a measure of living cells.

The next assay addresses Ba/F3-EGFR-WT cells (Homo sapiens, UniProt P00533). The assay can be described thus: Ba/F3 cell survival assay (Cell Titer-Glo), WT EGFR. In kind it is cell-based. Particulars: without IL-3, with 10 ng/mL EGF, 48 h; read-out: BA/F3 (wild type) IC50. On the procedure: as §1, §2, §3, §4
Where [2] appears, read: Bub1 high ATP (2 mM) IC50 [mol/l].

pIC50: −log10 of the molar value. Read-outs that look alike come from different tables or passages of the source.

T1 sequence (O43683 704-1085): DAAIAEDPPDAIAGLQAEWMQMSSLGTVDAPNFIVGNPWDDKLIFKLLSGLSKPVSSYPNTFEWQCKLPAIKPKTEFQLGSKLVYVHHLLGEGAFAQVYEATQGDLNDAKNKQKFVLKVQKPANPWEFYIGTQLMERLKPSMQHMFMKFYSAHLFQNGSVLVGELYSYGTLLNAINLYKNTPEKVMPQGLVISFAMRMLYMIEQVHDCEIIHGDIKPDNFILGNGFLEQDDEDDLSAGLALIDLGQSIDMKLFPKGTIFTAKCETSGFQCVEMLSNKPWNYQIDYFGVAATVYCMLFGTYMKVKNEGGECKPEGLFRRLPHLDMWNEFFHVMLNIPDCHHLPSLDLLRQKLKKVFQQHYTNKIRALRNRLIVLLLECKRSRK
Chain of Ba/F3-EGFR-WT cells (P00533 whole entry, change not shown): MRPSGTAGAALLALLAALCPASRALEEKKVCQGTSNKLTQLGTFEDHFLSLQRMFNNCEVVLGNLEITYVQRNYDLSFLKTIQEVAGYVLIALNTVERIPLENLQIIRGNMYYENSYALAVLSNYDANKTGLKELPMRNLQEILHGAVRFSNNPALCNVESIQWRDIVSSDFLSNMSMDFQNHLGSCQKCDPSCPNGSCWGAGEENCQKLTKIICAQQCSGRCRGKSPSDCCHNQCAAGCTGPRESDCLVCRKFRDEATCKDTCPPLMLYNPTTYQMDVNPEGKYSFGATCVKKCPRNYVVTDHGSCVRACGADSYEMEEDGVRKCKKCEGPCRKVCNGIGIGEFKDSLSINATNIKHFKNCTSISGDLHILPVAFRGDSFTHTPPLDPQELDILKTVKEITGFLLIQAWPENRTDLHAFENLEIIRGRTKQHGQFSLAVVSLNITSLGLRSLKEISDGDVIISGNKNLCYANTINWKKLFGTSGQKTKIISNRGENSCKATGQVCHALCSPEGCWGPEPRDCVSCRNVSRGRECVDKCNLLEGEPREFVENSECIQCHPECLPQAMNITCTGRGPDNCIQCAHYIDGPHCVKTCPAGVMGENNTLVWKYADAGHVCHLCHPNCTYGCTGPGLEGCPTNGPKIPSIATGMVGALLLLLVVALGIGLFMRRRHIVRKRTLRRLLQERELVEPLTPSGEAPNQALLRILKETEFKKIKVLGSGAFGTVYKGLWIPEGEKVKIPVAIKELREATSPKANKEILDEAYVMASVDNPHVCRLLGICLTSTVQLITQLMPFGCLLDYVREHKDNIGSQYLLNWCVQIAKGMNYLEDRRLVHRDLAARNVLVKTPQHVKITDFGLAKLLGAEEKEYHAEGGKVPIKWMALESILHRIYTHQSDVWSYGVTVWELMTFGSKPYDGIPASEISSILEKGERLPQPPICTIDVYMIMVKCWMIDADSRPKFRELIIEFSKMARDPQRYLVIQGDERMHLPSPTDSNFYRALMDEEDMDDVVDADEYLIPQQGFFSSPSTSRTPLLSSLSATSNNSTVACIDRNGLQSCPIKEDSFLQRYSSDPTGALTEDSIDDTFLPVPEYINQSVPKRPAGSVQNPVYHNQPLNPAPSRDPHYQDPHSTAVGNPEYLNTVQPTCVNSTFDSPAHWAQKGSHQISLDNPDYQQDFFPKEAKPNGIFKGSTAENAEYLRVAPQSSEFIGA

As to `Cc1c(F)cccc1Nc1c(-c2ccncc2OCC2CN(C)CCO2)[nH]c2c1C(=O)NCC2` (single isomer, unassigned) [Example 63, 3-(3-fluoro-2-methylanilino)-2-(3-{[4-methylmorpholin-2-yl]methoxy}pyridin-4-yl)-1,5,6,7-tetrahydro-4H-pyrrolo[3,2-c]pyridin-4-one], on Bub1 (setting [2]), the pIC50 is below 4.70. Besides, the “mutEGFR (D770_N771insSVD) kinase assay IC50” value (“mutEGFR” for short) in assay [1] stood at 265 pM. Besides, the GI50 was 147 nM at Ba/F3-EGFR-insSVD cells and 1370 nM at Ba/F3-EGFR-WT cells.
On Bub1 (setting [2]), `COc1c(Cl)cccc1Nc1c(-c2ccncc2O[C@@H](C)C2COCCO2)[nH]c2c1C(=O)NCC2` (single isomer, unassigned) [Example 59, 3-(3-chloro-2-methoxyanilino)-2-{3-[(1 S)-1-(1,4-dioxan-2-yl)ethoxy]pyridin-4-yl}-1,5,6,7-tetrahydro-4H-pyrrolo[3,2-c]pyridin-4-one] gave a pIC50 of 4.91. For the same molecule, the “mutEGFR” value in assay [1] was determined as 235 pM. For the same molecule, the GI50 on Ba/F3-EGFR-insSVD cells is 18.6 nM; on Ba/F3-EGFR-WT cells it was 336 nM.
At Bub1 (setting [2]), `CCc1c(Cl)cccc1Nc1c(-c2ccncc2OCC2COCCO2)[nH]c2c1C(=O)NCC2` (stereo not shown) [Example 52, 3-(3-chloro-2-ethyl-anilino)-2-[3-(1,4-dioxan-2-ylmethoxy)-4-pyridyl]-1,5,6,7-tetrahydropyrrolo[3,2-c]pyridin-4-one] had a pIC50 of 6.14. In addition, in assay [1], the “mutEGFR” value was found to be 226 pM. For the same molecule, the GI50 on Ba/F3-EGFR-insSVD cells came to 13.4 nM; on Ba/F3-EGFR-WT cells, 547 nM.
In the case of `CCc1c(Cl)cccc1Nc1c(-c2ccncc2OC[C@H]2COCCO2)[nH]c2c1C(=O)NCC2` (single isomer, unassigned) [Example 54], on Bub1 (setting [2]), the pIC50 is 6.00. Moreover, in assay [1], the “mutEGFR” value stood at 571 pM. For the same molecule, the figures for the GI50 at Ba/F3-EGFR-insSVD cells and on Ba/F3-EGFR-WT cells were 80.9 nM and 917 nM, respectively.
At Bub1 (setting [2]), `COc1c(Cl)cccc1Nc1c(-c2ccncc2OCCC2COCCO2)[nH]c2c1C(=O)NCC2` (stereo not shown) [Example 24, 3-(3-chloro-2-methoxyanilino)-2-{3-[2-(4-dioxan-2-yl)ethoxy]pyridin-4-yl}-1,5,6,7-tetrahydro-4H-pyrrolo[3,2-c]pyridin-4-one] showed a pIC50 of 5.71. For the same molecule, the “mutEGFR” value in assay [1] was found to be 261 pM. The GI50 came out at 34.6 nM on Ba/F3-EGFR-insSVD cells and 444 nM at Ba/F3-EGFR-WT cells.
In the case of `COc1c(Cl)cccc1Nc1c(-c2ccncc2OC[C@H]2COCCO2)[nH]c2c1C(=O)NCC2` (single isomer, unassigned) [Example 3], the pIC50 against Bub1 (setting [2]) was 5.48. In addition, the “mutEGFR” value in assay [1] is 137 pM. The figures for the GI50 on Ba/F3-EGFR-insSVD cells and on Ba/F3-EGFR-WT cells were 22.8 nM and 755 nM, respectively.
As for `COc1c(Cl)cccc1Nc1c(-c2ccncc2OC(C)C2CN(C)CCO2)[nH]c2c1C(=O)NCC2` (single isomer, unassigned) [Example 74, 3-(3-chloro-2-methoxyanilino)-2-[3-({1-[-4-methylmorpholine-2-yl]ethyl}oxy)pyridin-4-yl]-1,5,6,7-tetrahydro-4H-pyrrolo[3,2-c]pyridin-4-one], on Bub1 (read-out: Bub1 high ATP (2 mM) IC50 [mol/l]), the pIC50 was below 4.70. Besides, in assay [1], the “mutEGFR” value was 661 pM. Moreover, the GI50 on Ba/F3-EGFR-insSVD cells is 51.1 nM; at Ba/F3-EGFR-WT cells, 828 nM.
As to `CCc1c(F)cccc1Nc1c(-c2ccncc2OCC2COCCO2)[nH]c2c1C(=O)NCC2` (single isomer, unassigned) [Example 66, 2-(3-{[1,4-dioxan-2-yl]methoxy}pyridin-4-yl)-3-(2-ethyl-3-fluoroanilino)-1,5,6,7-tetrahydro-4H-pyrrolo[3,2-c]pyridin-4-one], the pIC50 on Bub1 (setting [2]) is 5.30. Besides, the “mutEGFR” value in assay [1] worked out at 182 pM. Further, the GI50 was 7.52 nM at Ba/F3-EGFR-insSVD cells and 252 nM at Ba/F3-EGFR-WT cells.
`COc1c(Cl)cccc1Nc1c(-c2ccncc2OCCC2COCCO2)[nH]c2c1C(=O)NCC2` (single isomer, unassigned) [Example 25, 3-(3-chloro-2-methoxyanilino)-2-{3-[2-(4-dioxan-2-yl)ethoxy]pyridin-4-yl}-1,5,6,7-tetrahydro-4H-pyrrolo[3,2-c]pyridin-4-one] gave a pIC50 on Bub1 (setting [2]) below 4.70. In assay [1], the “mutEGFR” value is 282 pM. For the same molecule, the GI50 at Ba/F3-EGFR-insSVD cells amounted to 18.3 nM; at Ba/F3-EGFR-WT cells it was 349 nM.
The matching figures for `Cc1c(Cl)cccc1Nc1c(-c2ccncc2OC[C@H]2COCCN2C)[nH]c2c1C(=O)NCC2` [Example 43, 3-(3-chloro-2-methylanilino)-2-(3-{[(3R)-4-methylmorpholin-3-yl]methoxy}pyridin-4-yl)-1,5,6,7-tetrahydro-4H-pyrrolo[3,2-c]pyridin-4-one]: 5.62, 225 pM, 60.5 nM and 1250 nM.
The like results for `Cc1c(F)cccc1Nc1c(-c2ccncc2OCC2COC(C)(C)CO2)[nH]c2c1C(=O)NCC2` (single isomer, unassigned) [Example 39, 2-[3-[(5,5-dimethyl-1,4-dioxan-2-yl)methoxy]-4-pyridyl]-3-(3-fluoro-2-methyl-anilino)-1,5,6,7-tetrahydropyrrolo[3,2-c]pyridin-4-one] were, in that order, below 4.70, 304 pM, 44 nM and 630 nM.
The like results for `Cc1c(F)cccc1Nc1c(-c2ccncc2OCC2CN(C)CCO2)[nH]c2c1C(=O)NCC2` (stereo not shown) [Example 62, 3-(3-fluoro-2-methylanilino)-2-(3-{[4-methylmorpholin-2-yl]methoxy}pyridin-4-yl)-1,5,6,7-tetrahydro-4H-pyrrolo[3,2-c]pyridin-4-one] were, in that order, below 4.70, 237 pM, 26.7 nM and 697 nM.
As for `CCc1c(Cl)cccc1Nc1c(-c2ccncc2OC[C@H]2CN(C)CCO2)[nH]c2c1C(=O)NCC2` [Example 55, 3-(3-chloro-2-ethylanilino)-2-(3-{[(2R)-4-methylmorpholin-2-yl]methoxy}pyridin-4-yl)-1,5,6,7-tetrahydro-4H-pyrrolo[3,2-c]pyridin-4-one], the pIC50 against Bub1 (setting [2]) was 5.12. In addition, the “mutEGFR” value in assay [1] came to 257 pM. The GI50 was found to be 124 nM on Ba/F3-EGFR-insSVD cells and 1310 nM on Ba/F3-EGFR-WT cells.
The matching figures for `CCc1c(F)cccc1Nc1c(-c2ccncc2OCC2COCCO2)[nH]c2c1C(=O)NCC2` (stereo not shown) [Example 65, 2-(3-{[1,4-dioxan-2-yl]methoxy}pyridin-4-yl)-3-(2-ethyl-3-fluoroanilino)-1,5,6,7-tetrahydro-4H-pyrrolo[3,2-c]pyridin-4-one]: 5.45, 136 pM, 13.4 nM and 287 nM.
The matching figures for `COc1c(Cl)cccc1Nc1c(-c2ccncc2OCC2CN(C)CCO2)[nH]c2c1C(=O)NCC2` (stereo not shown) [Example 15, 3-(3-chloro-2-methoxyanilino)-2-{3-[(4-methylmorpholin-2-yl)methoxy]pyridin-4-yl}-1,5,6,7-tetrahydro-4H-pyrrolo[3,2-c]pyridin-4-one]: below 4.70, 151 pM, 15.3 nM and 426 nM.
The matching figures for `COc1c(F)cccc1Nc1c(-c2ccncc2OCC2CN(C)CCO2)[nH]c2c1C(=O)NCC2` (stereo not shown) [Example 12, 3-(3-fluoro-2-methoxyanilino)-2-{3-[(4-methylmorpholin-2-yl)methoxy]pyridin-4-yl}-1,5,6,7-tetrahydro-4H-pyrrolo[3,2-c]pyridin-4-one]: below 4.70, 79.4 pM, 22.8 nM and 574 nM.
